Legend:
[1] = Solubility of TMA monomer in adhesive monomers; assay type: physicochemical
[2] = Time-lapse 1H NMR of hydrolysis after exposure to D2O; assay type: physicochemical; settings: monomer dissolved in CDCl3, 1H NMR
Method: […] One drop of deuterium oxide (D2O, EMD Millipore) was then added and the sample inverted gently once to mix. Spectra were recorded immediately, then periodically for the next two hours.

Row | solubility in BCA monomer ([1]; 25% TMA by weight in the adhesive, preliminary formulation tests) | solubility in methyl methacrylate monomer ([1]; commercial formulation) | solubility in n-butyl cyanoacrylate ([1]; commercial formulation) | time course of anhydride bond hydrolysis after exposure to D2O [2] | SMILES
1 | excellent solubility | – | – | – | C=C(C)C(=O)Nc1ccc(C(=O)OCC)cc1 [BenzMA, Benzocaine Methacrylamide]
2 | – | soluble | soluble | 90 min | C=C(C)C(=O)OC(=O)C(C)c1ccc(CC(C)C)cc1 (stereo not shown) [IbuMA, Ibuprofen Methacrylic Anhydride]

Source: patent US11292760B2, “Therapeutic acrylates as enhanced medical adhesives” (Carnegie Mellon University, priority 2016, dated 2022)
